The text below walks through data of US10870647B2, “Imidazopyridine derivative, method for preparing same, and pharmaceutical composition containing same as active ingredient for preventing or treating cancer” (DAEGU-GYEONGBUK MEDICAL INNOVATION FOUNDATION, priority 2016, dated 2020).

Common to all, as to test: Kinase selectivity, scanMAX Kinase assay panel (DiscoverX), % control at 1 uM
Holding throughout (format): binding

Assay [1] has as its target T1, scanMAX Kinase assay panel (Homo sapiens, UniProt Q9H1R3).
T1 construct: purchased DiscoverX
The conditions noted are these: MYLK2; 1 uM; read-out: Percent Control (%). In a few lines:
(§1)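 A single concentration of 1 uM, in DMSO, is applied across the kinase panel. Activity against an individual enzyme is assigned where % control is less than 35.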

In assay [2] the target is T2, scanMAX Kinase assay panel (Homo sapiens, UniProt P51817).
T2 construct: purchased DiscoverX
T2 sequence (P51817 1-358): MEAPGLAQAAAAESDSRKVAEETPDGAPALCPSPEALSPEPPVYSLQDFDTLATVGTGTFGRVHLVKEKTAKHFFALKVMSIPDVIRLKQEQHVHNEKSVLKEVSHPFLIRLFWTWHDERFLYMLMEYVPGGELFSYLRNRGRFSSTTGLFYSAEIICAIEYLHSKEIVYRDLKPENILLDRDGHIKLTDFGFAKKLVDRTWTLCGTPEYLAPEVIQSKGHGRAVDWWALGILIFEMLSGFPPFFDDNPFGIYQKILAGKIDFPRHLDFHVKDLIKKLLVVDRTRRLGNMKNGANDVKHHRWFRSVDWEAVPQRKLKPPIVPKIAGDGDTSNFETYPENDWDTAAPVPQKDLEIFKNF
As to conditions: PRKX; 1 uM; read-out: Percent Control (%). In a few lines: as §1

Assay [3] has as its target T3, scanMAX Kinase assay panel (Homo sapiens, UniProt Q14012).
T3 construct: purchased DiscoverX
The conditions noted are these: CAMK1; 1 uM; read-out: Percent Control (%). In a few lines: as §1

The target of assay [4] is T4, scanMAX Kinase assay panel (Homo sapiens, UniProt Q9Y2U5).
T4 construct: purchased DiscoverX
T4 sequence (Q9Y2U5 1-619): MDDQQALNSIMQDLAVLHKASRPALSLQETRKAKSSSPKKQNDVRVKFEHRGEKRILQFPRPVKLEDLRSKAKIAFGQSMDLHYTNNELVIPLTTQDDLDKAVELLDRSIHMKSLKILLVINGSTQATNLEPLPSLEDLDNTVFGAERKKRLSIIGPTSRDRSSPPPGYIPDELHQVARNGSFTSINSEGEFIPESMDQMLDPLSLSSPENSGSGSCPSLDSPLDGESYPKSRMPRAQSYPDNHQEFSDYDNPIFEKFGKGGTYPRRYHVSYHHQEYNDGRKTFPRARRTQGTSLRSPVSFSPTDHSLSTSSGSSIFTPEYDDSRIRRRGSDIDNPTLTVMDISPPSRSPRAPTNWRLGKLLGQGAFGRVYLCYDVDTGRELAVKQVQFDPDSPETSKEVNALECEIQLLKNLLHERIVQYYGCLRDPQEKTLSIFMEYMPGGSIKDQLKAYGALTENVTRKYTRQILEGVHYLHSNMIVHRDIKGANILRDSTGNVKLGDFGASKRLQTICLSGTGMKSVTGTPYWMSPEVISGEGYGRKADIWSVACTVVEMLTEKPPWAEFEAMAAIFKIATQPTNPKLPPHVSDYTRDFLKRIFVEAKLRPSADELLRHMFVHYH
The conditions noted are these: MAP3K2; 1 uM; read-out: Percent Control (%). In a few lines:
as §1

For assay [5], the target named is T5, scanMAX Kinase assay panel (Homo sapiens, UniProt P07332).
T5 construct: purchased DiscoverX
T5 sequence (P07332 whole entry): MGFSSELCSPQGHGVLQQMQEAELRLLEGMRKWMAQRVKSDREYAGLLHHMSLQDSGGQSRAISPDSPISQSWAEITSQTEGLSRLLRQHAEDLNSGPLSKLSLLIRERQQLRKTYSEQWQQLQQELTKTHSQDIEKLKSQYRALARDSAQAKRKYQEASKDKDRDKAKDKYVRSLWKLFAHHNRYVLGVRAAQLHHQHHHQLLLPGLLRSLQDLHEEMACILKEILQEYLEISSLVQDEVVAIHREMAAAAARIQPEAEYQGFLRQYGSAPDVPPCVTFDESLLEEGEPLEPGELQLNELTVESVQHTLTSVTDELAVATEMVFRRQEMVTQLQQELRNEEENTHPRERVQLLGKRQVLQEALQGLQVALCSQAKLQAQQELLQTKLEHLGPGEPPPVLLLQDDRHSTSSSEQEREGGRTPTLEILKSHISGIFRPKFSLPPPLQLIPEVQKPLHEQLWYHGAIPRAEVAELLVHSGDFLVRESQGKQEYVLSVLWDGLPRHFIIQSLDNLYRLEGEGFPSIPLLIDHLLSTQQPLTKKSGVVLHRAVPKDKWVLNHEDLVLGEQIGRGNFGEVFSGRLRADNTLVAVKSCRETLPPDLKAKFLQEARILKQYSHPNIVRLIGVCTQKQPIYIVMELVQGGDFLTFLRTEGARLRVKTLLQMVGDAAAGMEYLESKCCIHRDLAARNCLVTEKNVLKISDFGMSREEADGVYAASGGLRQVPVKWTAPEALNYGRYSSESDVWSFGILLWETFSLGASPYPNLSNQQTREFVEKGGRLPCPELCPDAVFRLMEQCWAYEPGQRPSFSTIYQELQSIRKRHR
As to conditions: FES; 1 uM; read-out: Percent Control (%). In a few lines:
as §1

For assay [6], the target named is T6, scanMAX Kinase assay panel (Homo sapiens, UniProt O75385).
T6 construct: purchased DiscoverX
T6 sequence (O75385 1-1050): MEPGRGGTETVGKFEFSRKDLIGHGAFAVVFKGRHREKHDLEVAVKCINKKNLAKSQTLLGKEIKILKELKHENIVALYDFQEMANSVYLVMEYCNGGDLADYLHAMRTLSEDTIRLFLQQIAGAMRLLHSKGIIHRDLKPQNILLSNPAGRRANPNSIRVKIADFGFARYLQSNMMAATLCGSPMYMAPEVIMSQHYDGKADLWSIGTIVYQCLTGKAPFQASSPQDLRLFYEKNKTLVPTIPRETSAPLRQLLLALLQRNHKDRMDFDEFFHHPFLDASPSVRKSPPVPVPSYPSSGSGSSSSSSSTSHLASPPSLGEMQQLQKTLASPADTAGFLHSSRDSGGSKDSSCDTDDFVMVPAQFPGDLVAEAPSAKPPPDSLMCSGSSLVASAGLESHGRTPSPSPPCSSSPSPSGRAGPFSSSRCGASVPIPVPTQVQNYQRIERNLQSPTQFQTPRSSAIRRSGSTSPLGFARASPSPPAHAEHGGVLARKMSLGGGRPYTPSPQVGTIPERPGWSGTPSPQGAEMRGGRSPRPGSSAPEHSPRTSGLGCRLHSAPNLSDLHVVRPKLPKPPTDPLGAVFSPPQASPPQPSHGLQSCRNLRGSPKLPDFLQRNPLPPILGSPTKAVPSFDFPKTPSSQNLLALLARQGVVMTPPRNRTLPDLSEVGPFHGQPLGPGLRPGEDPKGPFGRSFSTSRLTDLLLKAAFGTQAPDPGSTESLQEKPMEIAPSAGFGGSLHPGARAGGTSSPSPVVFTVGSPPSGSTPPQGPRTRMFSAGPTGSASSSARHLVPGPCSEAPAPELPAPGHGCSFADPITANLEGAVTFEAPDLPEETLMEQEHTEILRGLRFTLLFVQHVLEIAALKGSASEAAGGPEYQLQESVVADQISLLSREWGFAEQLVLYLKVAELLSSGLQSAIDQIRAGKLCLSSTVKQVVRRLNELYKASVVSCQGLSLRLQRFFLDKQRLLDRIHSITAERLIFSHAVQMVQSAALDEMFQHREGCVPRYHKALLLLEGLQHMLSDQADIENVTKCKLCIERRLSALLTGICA
As to conditions: ULK1; 1 uM; read-out: Percent Control (%). In a few lines:
as §1

For assay [7], the target named is T7, scanMAX Kinase assay panel (Homo sapiens, UniProt P42336, I800L).
T7 construct: purchased DiscoverX
T7 sequence (P42336 whole entry I800L): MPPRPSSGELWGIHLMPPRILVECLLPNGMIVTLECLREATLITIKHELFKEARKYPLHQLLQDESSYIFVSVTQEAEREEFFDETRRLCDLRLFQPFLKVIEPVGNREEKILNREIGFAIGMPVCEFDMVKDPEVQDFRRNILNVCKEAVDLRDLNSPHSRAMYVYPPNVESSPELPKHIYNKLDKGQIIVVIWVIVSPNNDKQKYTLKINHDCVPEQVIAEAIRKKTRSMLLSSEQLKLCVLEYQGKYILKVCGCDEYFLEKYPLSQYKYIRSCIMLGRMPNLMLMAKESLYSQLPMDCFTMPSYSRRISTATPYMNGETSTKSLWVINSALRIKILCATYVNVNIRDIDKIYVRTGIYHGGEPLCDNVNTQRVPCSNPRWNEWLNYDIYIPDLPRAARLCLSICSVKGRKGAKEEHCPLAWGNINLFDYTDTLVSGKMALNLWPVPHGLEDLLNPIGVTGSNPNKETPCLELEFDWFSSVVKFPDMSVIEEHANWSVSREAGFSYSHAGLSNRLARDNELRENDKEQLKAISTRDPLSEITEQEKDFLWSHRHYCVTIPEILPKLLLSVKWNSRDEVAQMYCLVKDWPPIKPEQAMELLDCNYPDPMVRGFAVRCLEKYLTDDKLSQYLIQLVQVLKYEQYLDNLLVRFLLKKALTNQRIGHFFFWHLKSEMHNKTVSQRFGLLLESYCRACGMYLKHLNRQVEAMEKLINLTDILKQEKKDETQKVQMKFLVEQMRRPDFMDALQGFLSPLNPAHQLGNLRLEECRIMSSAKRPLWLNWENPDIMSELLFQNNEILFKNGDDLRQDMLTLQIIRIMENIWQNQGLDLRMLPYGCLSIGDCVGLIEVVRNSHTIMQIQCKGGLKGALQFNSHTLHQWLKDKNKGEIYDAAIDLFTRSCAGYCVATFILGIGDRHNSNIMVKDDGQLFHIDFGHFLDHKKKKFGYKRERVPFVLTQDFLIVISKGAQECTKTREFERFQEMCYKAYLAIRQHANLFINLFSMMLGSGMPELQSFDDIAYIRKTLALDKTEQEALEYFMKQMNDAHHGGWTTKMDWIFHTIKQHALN
The conditions noted are these: PIK3CA (I800L); 1 uM; read-out: Percent Control (%). In a few lines: as §1

In assay [8] the target is T8, scanMAX Kinase assay panel (Homo sapiens, UniProt Q9NSY1).
T8 construct: purchased DiscoverX
T8 sequence (Q9NSY1 whole entry): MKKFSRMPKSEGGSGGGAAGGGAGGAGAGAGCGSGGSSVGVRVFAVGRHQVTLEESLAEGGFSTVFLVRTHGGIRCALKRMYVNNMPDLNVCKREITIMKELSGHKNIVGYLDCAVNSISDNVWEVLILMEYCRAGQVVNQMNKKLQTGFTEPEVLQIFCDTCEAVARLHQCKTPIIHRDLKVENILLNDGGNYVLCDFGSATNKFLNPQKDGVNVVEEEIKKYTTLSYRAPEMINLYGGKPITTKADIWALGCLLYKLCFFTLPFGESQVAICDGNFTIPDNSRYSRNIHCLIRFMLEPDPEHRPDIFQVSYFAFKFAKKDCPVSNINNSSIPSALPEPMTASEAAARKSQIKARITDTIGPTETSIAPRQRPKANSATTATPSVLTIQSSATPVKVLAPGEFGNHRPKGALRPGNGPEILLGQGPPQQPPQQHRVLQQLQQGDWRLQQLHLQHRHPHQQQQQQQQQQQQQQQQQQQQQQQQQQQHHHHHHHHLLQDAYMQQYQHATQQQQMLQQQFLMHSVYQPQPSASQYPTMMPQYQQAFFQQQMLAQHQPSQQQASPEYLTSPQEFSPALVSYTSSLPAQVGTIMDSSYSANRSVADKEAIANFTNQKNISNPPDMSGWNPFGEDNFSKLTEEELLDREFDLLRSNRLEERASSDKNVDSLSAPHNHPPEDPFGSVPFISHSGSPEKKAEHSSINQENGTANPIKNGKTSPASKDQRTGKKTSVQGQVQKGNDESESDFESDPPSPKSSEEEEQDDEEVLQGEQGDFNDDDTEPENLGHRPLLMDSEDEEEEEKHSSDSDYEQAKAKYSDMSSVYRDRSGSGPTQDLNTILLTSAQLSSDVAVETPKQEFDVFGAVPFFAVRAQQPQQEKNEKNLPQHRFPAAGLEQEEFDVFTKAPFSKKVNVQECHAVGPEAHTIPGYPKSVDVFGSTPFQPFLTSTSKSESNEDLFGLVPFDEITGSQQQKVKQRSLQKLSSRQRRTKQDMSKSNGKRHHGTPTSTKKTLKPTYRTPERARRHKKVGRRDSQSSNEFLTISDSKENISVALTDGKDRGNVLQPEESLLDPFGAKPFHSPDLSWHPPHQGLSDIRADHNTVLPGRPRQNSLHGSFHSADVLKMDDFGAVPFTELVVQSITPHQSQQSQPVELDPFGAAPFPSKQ
The conditions noted are these: BIKE; 1 uM; read-out: Percent Control (%). In a few lines:
as §1

The structures appear in SMILES notation.

T3 sequence (Q14012 whole entry): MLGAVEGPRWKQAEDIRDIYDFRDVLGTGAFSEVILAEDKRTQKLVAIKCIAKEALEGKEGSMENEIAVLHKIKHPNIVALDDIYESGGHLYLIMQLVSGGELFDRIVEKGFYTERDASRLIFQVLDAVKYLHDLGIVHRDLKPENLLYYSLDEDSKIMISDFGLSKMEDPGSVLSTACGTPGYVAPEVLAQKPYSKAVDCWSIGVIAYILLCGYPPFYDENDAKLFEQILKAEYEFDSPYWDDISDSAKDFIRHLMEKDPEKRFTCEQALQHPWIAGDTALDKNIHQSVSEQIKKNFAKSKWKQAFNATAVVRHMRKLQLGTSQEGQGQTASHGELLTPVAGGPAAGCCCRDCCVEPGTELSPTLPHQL
T1 sequence (Q9H1R3 whole entry): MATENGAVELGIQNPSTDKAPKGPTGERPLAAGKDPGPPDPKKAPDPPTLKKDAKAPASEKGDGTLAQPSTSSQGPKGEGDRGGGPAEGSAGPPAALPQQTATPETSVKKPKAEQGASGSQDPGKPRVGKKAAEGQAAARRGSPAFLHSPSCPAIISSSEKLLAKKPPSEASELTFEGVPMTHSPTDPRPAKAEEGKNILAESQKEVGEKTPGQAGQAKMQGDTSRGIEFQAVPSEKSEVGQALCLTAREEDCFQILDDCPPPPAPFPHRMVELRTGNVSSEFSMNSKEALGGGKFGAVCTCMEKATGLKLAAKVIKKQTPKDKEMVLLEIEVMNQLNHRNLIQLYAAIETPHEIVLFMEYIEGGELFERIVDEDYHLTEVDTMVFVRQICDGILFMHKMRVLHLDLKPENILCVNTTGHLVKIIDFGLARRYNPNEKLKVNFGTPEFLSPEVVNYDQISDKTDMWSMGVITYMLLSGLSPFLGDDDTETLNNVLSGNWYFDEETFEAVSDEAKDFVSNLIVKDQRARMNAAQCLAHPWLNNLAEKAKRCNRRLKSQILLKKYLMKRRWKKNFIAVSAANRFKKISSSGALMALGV

With `Cc1ccc(C(=O)Nc2ccc(CN3CCN(C)CC3)c(C(F)(F)F)c2)cc1C#Cc1cnc2c(Nc3cnn(C)c3)cccn12` [Example 1, 4-methyl-3-((8-((1-methyl-1H-pyrazol-4-yl)amino)imidazo[1,2-a]pyridin-3-yl)ethynyl)-N-(4-((4-methylpiperazin-1-yl)methyl)-3-(trifluoromethyl)phenyl)benzamide], the remaining binding at 1 µM in assay [1] is 6%; in assay [2], 93%; in assay [3], 35%; in assay [4], 1%; in assay [5], 0%; in assay [6], 68%. Also, the values for the remaining binding at 1 µM in assay [7] and in assay [8] were 80% and 81%, respectively.

For `Cc1cn(-c2cc(NC(=O)c3ccc(C)c(C#Cc4cnc5c(Nc6cnn(C)c6)cccn45)c3)cc(C(F)(F)F)c2)cn1` [Example 12, 4-methyl-N-(3-(4-methyl-1H-imidazol-1-yl)-5-(trifluoromethyl)phenyl)-3-((8-((1-methyl-1H-pyrazol-4-yl)amino)imidazo[1,2-a]pyridin-3-yl)ethynyl)benzamide], the remaining binding at 1 µM turned out to be 40% in assay [1]; 97% in assay [2]; 73% in assay [3]; 84% in assay [4]; 6% in assay [5]; 100% in assay [6]. For the same molecule, the remaining binding at 1 µM was 75% in assay [7] and 85% in assay [8].

Consider `Cc1ccc(NC(=O)C2(C(=O)Nc3ccc(F)cc3)CC2)cc1C#Cc1cnc2c(Nc3cnn(C(C)C)c3)cccn12` [Example 78], for which the remaining binding at 1 µM came out at 100% in assay [1]; 78% in assay [2]; 100% in assay [3]; 100% in assay [4]; 100% in assay [5]; 100% in assay [6]. In addition, the remaining binding at 1 µM amounted to 92% in assay [7] and 100% in assay [8].
